Test results reported in paper PMC6838048, “A Cell-Free Approach Based on Phospholipid Characterization for Determination of the Cell Specific Unbound Drug Fraction (fu,cell)” (Pharmaceutical Research, 2019).

assay: fu,PL from membrane affinity to PL-covered silica beads, PS; type: in vitro ADME; details: silica beads covered with phosphatidylserine (PS), Transil; beads coated with pure PS, 15 min incubation; read-out: fu,PS Geomean
Protocol: (§1) f u,PL was derived from membrane affinity measurements to beads covered with PLs as previously described ([6]).
(§2) Cbuffer was quantified by LC-MS/MS in samples of the supernatant that was obtained after 15 min incubation time on an orbital shaker at 1000 rpm and subsequent separation from the beads by centrifugation at 750 x g. […] Unspecific binding was evaluated by incubations into wells without added lipids.

Row | fraction unbound at 15 min | Structure (SMILES)
1 | 0.0002 | CC[C@H](C)C(=O)O[C@H]1C[C@@H](C)C=C2C=C[C@H](C)[C@H](CC[C@@H]3C[C@@H](O)CC(=O)O3)[C@H]21 [Lovastatin]
2 | 0.0154 | COc1ccc2[nH]c([S+]([O-])Cc3ncc(C)c(OC)c3C)nc2c1 (stereo not shown) [Omeprazole]
3 | 0.0089 | CCCNC(=O)NS(=O)(=O)c1ccc(Cl)cc1 [Chlorpropamide]
4 | 0.0093 | Cc1ccccc1N1C(=O)c2cc(S(N)(=O)=O)c(Cl)cc2NC1C (stereo not shown) [Metolazone]

assay: fu,PL from membrane affinity to PL-covered silica beads, PE; type: in vitro ADME; details: beads coated with pure PE, 15 min incubation; read-out: fu,PE Geomean
Protocol: as §1, §2

Row | fraction unbound at 15 min | Structure (SMILES)
5 | 0.0011 | CC[C@H](C)C(=O)O[C@H]1C[C@@H](C)C=C2C=C[C@H](C)[C@H](CC[C@@H]3C[C@@H](O)CC(=O)O3)[C@H]21 [Lovastatin]
6 | 0.0131 | COc1ccc2[nH]c([S+]([O-])Cc3ncc(C)c(OC)c3C)nc2c1 (stereo not shown) [Omeprazole]
7 | 0.0109 | CCCNC(=O)NS(=O)(=O)c1ccc(Cl)cc1 [Chlorpropamide]
8 | 0.0085 | Cc1ccccc1N1C(=O)c2cc(S(N)(=O)=O)c(Cl)cc2NC1C (stereo not shown) [Metolazone]

assay: fu,PL from membrane affinity to PL-covered silica beads, mixed beads; type: in vitro ADME; details: examples of Fig. 3c, individual PL beads and mixed beads
Protocol: as §1, §2

Row | fu,PL (in words) | Structure (SMILES)
9 | high | CCCNC(=O)NS(=O)(=O)c1ccc(Cl)cc1 [Chlorpropamide]

same assay, conditions: mixed beads PC:PE:PS:PI 52:22:12:14 mol%, 15 min incubation; read-out: fu,mixed bead Geomean

Row | fraction unbound at 15 min | Structure (SMILES)
10 | 0.0002 | CC[C@H](C)C(=O)O[C@H]1C[C@@H](C)C=C2C=C[C@H](C)[C@H](CC[C@@H]3C[C@@H](O)CC(=O)O3)[C@H]21 [Lovastatin]
11 | 0.0237 | COc1ccc2[nH]c([S+]([O-])Cc3ncc(C)c(OC)c3C)nc2c1 (stereo not shown) [Omeprazole]
12 | 0.0343 | CCCNC(=O)NS(=O)(=O)c1ccc(Cl)cc1 [Chlorpropamide]
13 | 0.0069 | Cc1ccccc1N1C(=O)c2cc(S(N)(=O)=O)c(Cl)cc2NC1C (stereo not shown) [Metolazone]

assay: fu,cell by equilibrium dialysis of cell homogenate, MDCK; type: in vitro ADME; details: dog, dialysis 4 h 37°C, 10 million cells/mL homogenate, read-out: fu,MDCK Geomean
Protocol: (§3) fu,cell was measured in cassette-mode as previously described with minor modifications ([9]). Briefly, 10 million cells/mL were suspended in HBSS buffered with 10 mM HEPES and homogenized on ice by sonication (VCX 750 Sonicator, 3 mm probe, 20% intensity, 10 s). Up to 8 compounds were combined randomly and spiked into the homogenate for a final concentration of 0.5 μM. Equilibrium dialysis was performed in a Rapid Equilibirum device (Thermo Fisher Scientific) against blank HBSS buffered with 10 mM HEPES, for 4 h at 37°C on an orbital shaker at 900 rpm. Stability controls were kept at 4° and 37°C for the duration of the experiment. The concentration in both dialysis chambers was quantified by extracting the compound with acetonitrile/water (60/40) containing internal standard. Matrixes were matched with blank buffer or cell homogenate, respectively. LC-MS/MS parameters are available in Table S9. All experiments were carried out in triplicates and at least at two independent occasions.
(§4) (3), assuming the Vcell to be equal to 6.5 μL/mg protein ([6],[10]). Protein content in the cell homogenates was determined at each experiment using the BCA Protein Assay Reagent Kit (Thermo Fisher Scientific Inc.).3 DP=1/Vcell

Row | fraction unbound at 4 h, 0.5 μM | Structure (SMILES)
14 | 0.0045 | CC[C@H](C)C(=O)O[C@H]1C[C@@H](C)C=C2C=C[C@H](C)[C@H](CC[C@@H]3C[C@@H](O)CC(=O)O3)[C@H]21 [Lovastatin]
15 | 0.255 | COc1ccc2[nH]c([S+]([O-])Cc3ncc(C)c(OC)c3C)nc2c1 (stereo not shown) [Omeprazole]
16 | 0.349 | CCCNC(=O)NS(=O)(=O)c1ccc(Cl)cc1 [Chlorpropamide]
17 | 0.37 | Cc1ccccc1N1C(=O)c2cc(S(N)(=O)=O)c(Cl)cc2NC1C (stereo not shown) [Metolazone]

assay: fu,cell by equilibrium dialysis of cell homogenate, K562; type: in vitro ADME; details: human, dialysis 4 h 37°C, 10 million cells/mL homogenate, read-out: fu,K562 Geomean
Protocol: as §3
(§5) The unbound fraction in the cell homogenate (fu,hom) was determined according to Eq. (1):1 fu,hom=Cbuffer/Chom and the fraction of unbound compound in the cell (fu,cell) was calculated by correcting for homogenate dilution according to Eq. (2):2 fu,cell=1/DP∙1/fu,hom−1+1 where the dilution constant DP was calculated using Eq. (3), assuming the Vcell to be equal to 6.5 μL/mg protein ([6],[10]). Protein content in the cell homogenates was determined at each experiment using the BCA Protein Assay Reagent Kit (Thermo Fisher Scientific Inc.).3 DP=1/Vcell

Row | fraction unbound at 4 h, 0.5 μM | Structure (SMILES)
18 | 0.0055 | CC[C@H](C)C(=O)O[C@H]1C[C@@H](C)C=C2C=C[C@H](C)[C@H](CC[C@@H]3C[C@@H](O)CC(=O)O3)[C@H]21 [Lovastatin]
19 | 0.419 | COc1ccc2[nH]c([S+]([O-])Cc3ncc(C)c(OC)c3C)nc2c1 (stereo not shown) [Omeprazole]
20 | 0.638 | CCCNC(=O)NS(=O)(=O)c1ccc(Cl)cc1 [Chlorpropamide]
21 | 0.485 | Cc1ccccc1N1C(=O)c2cc(S(N)(=O)=O)c(Cl)cc2NC1C (stereo not shown) [Metolazone]

assay: fu,cell by equilibrium dialysis of cell homogenate, LLC-PK1; type: in vitro ADME; details: pig, dialysis 4 h 37°C, 10 million cells/mL homogenate, read-out: fu,LLCPK1 Geomean
Protocol: as §3, §5

Row | fraction unbound at 4 h, 0.5 μM | Structure (SMILES)
22 | 0.002 | CC[C@H](C)C(=O)O[C@H]1C[C@@H](C)C=C2C=C[C@H](C)[C@H](CC[C@@H]3C[C@@H](O)CC(=O)O3)[C@H]21 [Lovastatin]
23 | 0.238 | COc1ccc2[nH]c([S+]([O-])Cc3ncc(C)c(OC)c3C)nc2c1 (stereo not shown) [Omeprazole]
24 | 0.6 | CCCNC(=O)NS(=O)(=O)c1ccc(Cl)cc1 [Chlorpropamide]
25 | 0.144 | Cc1ccccc1N1C(=O)c2cc(S(N)(=O)=O)c(Cl)cc2NC1C (stereo not shown) [Metolazone]

assay: fu,cell by equilibrium dialysis of cell homogenate, Caco-2; type: in vitro ADME; details: human, Caco-2 cell homogenate, dialysis 4 h 37°C, 10 million cells/mL homogenate, read-out: fu,Caco-2 Geomean
Protocol: as §3, §4

Row | fraction unbound at 4 h, 0.5 μM | Structure (SMILES)
26 | 0.0024 | CC[C@H](C)C(=O)O[C@H]1C[C@@H](C)C=C2C=C[C@H](C)[C@H](CC[C@@H]3C[C@@H](O)CC(=O)O3)[C@H]21 [Lovastatin]
27 | 0.181 | COc1ccc2[nH]c([S+]([O-])Cc3ncc(C)c(OC)c3C)nc2c1 (stereo not shown) [Omeprazole]
28 | 0.654 | CCCNC(=O)NS(=O)(=O)c1ccc(Cl)cc1 [Chlorpropamide]
29 | 0.133 | Cc1ccccc1N1C(=O)c2cc(S(N)(=O)=O)c(Cl)cc2NC1C (stereo not shown) [Metolazone]

assay: fu,cell by equilibrium dialysis of cell homogenate, primary human hepatocytes; type: in vitro ADME; details: primary human hepatocyte homogenate, dialysis 4 h 37°C, 10 million cells/mL homogenate, read-out: fu,HH Geomean
Protocol: as §3, §5

Row | fraction unbound at 4 h, 0.5 μM | Structure (SMILES)
30 | 0.0013 | CC[C@H](C)C(=O)O[C@H]1C[C@@H](C)C=C2C=C[C@H](C)[C@H](CC[C@@H]3C[C@@H](O)CC(=O)O3)[C@H]21 [Lovastatin]
31 | 0.161 | COc1ccc2[nH]c([S+]([O-])Cc3ncc(C)c(OC)c3C)nc2c1 (stereo not shown) [Omeprazole]
32 | 0.944 | CCCNC(=O)NS(=O)(=O)c1ccc(Cl)cc1 [Chlorpropamide]
33 | 0.0709 | Cc1ccccc1N1C(=O)c2cc(S(N)(=O)=O)c(Cl)cc2NC1C (stereo not shown) [Metolazone]

assay: fu,PL from membrane affinity to PL-covered silica beads, PC; type: in vitro ADME; details: silica beads covered with phosphatidylcholine (PC), Transil; beads coated with pure PC, 15 min incubation; read-out: fu,PC Geomean
Protocol: as §1, §2

Row | fraction unbound at 15 min | Structure (SMILES)
34 | 0.0004 | CC[C@H](C)C(=O)O[C@H]1C[C@@H](C)C=C2C=C[C@H](C)[C@H](CC[C@@H]3C[C@@H](O)CC(=O)O3)[C@H]21 [Lovastatin]
35 | 0.0203 | COc1ccc2[nH]c([S+]([O-])Cc3ncc(C)c(OC)c3C)nc2c1 (stereo not shown) [Omeprazole]
36 | 0.0534 | CCCNC(=O)NS(=O)(=O)c1ccc(Cl)cc1 [Chlorpropamide]
37 | 0.0059 | Cc1ccccc1N1C(=O)c2cc(S(N)(=O)=O)c(Cl)cc2NC1C (stereo not shown) [Metolazone]

assay: fu,cell by equilibrium dialysis of cell homogenate, HEK293; type: in vitro ADME; details: human, dialysis 4 h 37°C, 10 million cells/mL homogenate, read-out: fu,HEK293 Geomean
Protocol: as §3, §5

Row | fraction unbound at 4 h, 0.5 μM | Structure (SMILES)
38 | 0.0074 | CC[C@H](C)C(=O)O[C@H]1C[C@@H](C)C=C2C=C[C@H](C)[C@H](CC[C@@H]3C[C@@H](O)CC(=O)O3)[C@H]21 [Lovastatin]
39 | 0.463 | COc1ccc2[nH]c([S+]([O-])Cc3ncc(C)c(OC)c3C)nc2c1 (stereo not shown) [Omeprazole]
40 | 0.571 | CCCNC(=O)NS(=O)(=O)c1ccc(Cl)cc1 [Chlorpropamide]
41 | 0.226 | Cc1ccccc1N1C(=O)c2cc(S(N)(=O)=O)c(Cl)cc2NC1C (stereo not shown) [Metolazone]

assay: fu,cell by equilibrium dialysis of cell homogenate, HL60; type: in vitro ADME; details: human, dialysis 4 h 37°C, 10 million cells/mL homogenate, read-out: fu,HL60 Geomean
Protocol: as §3, §5

Row | fraction unbound at 4 h, 0.5 μM | Structure (SMILES)
42 | 0.011 | CC[C@H](C)C(=O)O[C@H]1C[C@@H](C)C=C2C=C[C@H](C)[C@H](CC[C@@H]3C[C@@H](O)CC(=O)O3)[C@H]21 [Lovastatin]
43 | 0.223 | COc1ccc2[nH]c([S+]([O-])Cc3ncc(C)c(OC)c3C)nc2c1 (stereo not shown) [Omeprazole]
44 | 0.54 | CCCNC(=O)NS(=O)(=O)c1ccc(Cl)cc1 [Chlorpropamide]
45 | 0.445 | Cc1ccccc1N1C(=O)c2cc(S(N)(=O)=O)c(Cl)cc2NC1C (stereo not shown) [Metolazone]

assay: fu,cell by equilibrium dialysis of cell homogenate, A549; type: in vitro ADME; details: human, dialysis 4 h 37°C, 10 million cells/mL homogenate, read-out: fu,A549 Geomean
Protocol: as §3, §5

Row | fraction unbound at 4 h, 0.5 μM | Structure (SMILES)
46 | 0.0012 | CC[C@H](C)C(=O)O[C@H]1C[C@@H](C)C=C2C=C[C@H](C)[C@H](CC[C@@H]3C[C@@H](O)CC(=O)O3)[C@H]21 [Lovastatin]
47 | 0.232 | COc1ccc2[nH]c([S+]([O-])Cc3ncc(C)c(OC)c3C)nc2c1 (stereo not shown) [Omeprazole]
48 | 0.376 | CCCNC(=O)NS(=O)(=O)c1ccc(Cl)cc1 [Chlorpropamide]
49 | 0.416 | Cc1ccccc1N1C(=O)c2cc(S(N)(=O)=O)c(Cl)cc2NC1C (stereo not shown) [Metolazone]
